Assay results published in patent publication US10669283B2, “Compound and pharmacologically acceptable salt thereof” (MEIJI SEIKA PHARMA CO., LTD., priority 2016, dated 2020).

System: PDE4
Assay: PDE4 inhibition, scintillation proximity assay (SPA);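 for PDE4 Inhibitory Activity (concentration for the inhibition rate of 50%): A below 100 nM B 100 to below 1000 nM C 1000 nM or more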
Assay type: biochemical
Details: scintillation proximity assay (SPA); evaluated as classes A, B, C; read-out: PDE4 Inhibitory Activity (concentration for the inhibition rate of 50%)
Procedure, shortened: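 Scintillation proximity read-out: [2,8-3H]-cAMP hydrolysis by PDE4 ran 120 min at room temperature in Tris-HCl pH 7.4 buffer with 8.3 mM MgCl2, 1.7 mM EGTA and 3 mg/mL BSA. Bead-bound product (YSi-SPA with ZnSO4, 15 min) counted; blank lacks enzyme, control has DMSO only.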

Compound	IC50
CC(O)c1cc(-c2nccs2)c2oc(N3CC4CCC(C3)N4)nc2c1OC(F)(F)F (centres unmarked) [Example 202, 1-(2-(3,8-Diazabicyclo[3.2.1]octan-3-yl)-7-(thiazol-2-yl)-4-(trifluoromethoxy)benzo[d]oxazol-5-yl)ethan-1-ol]	< 100 nM
COC(c1cc(-c2nccs2)c2oc(N3CC4CCC(C3)N4)nc2c1)C(F)(F)F (centres unmarked) [Example 142, 2-(3,8-Diazabicyclo[3.2.1]octan-3-yl)-7-(thiazol-2-yl)-5-(2,2,2-trifluoro-1-methoxyethyl)benzo[d]oxazole]	< 100 nM
COC(c1cc(-c2nccs2)c2oc(N3CC4CCC(C3)N4)nc2c1OC(F)(F)F)C(F)F (centres unmarked) [Example 209, 2-(3,8-Diazabicyclo[3.2.1]octan-3-yl)-5-(2,2-difluoro-1-methoxyethyl)-7-(thiazol-2-yl)-4-(trifluoromethoxy)benzo[d]oxazole]	< 100 nM
COC(C)(C)c1cc(-c2nccs2)c2oc(N3CC4CCC(C3)N4)nc2c1OC(F)(F)F [Example 198, 2-(3,8-Diazabicyclo[3.2.1]octan-3-yl)-5-(2-methoxypropan-2-yl)-7-(thiazol-2-yl)-4-(trifluoromethoxy)benzo[d]oxazole]	< 100 nM
CCOC(=O)c1cc(-n2cccn2)c2oc(N3CC4CCCC(C3)N4)nc2c1 [Example 93, Ethyl 2-(3,9-diazabicyclo[3.3.1]nonan-3-yl)-7-(1H-pyrazol-1-yl)benzo[d]oxazole-5-carboxylate]	100 to 1000 nM
COc1cc(-c2nccs2)c2oc(N3CC4CCCC(C3)N4)nc2c1 [Example 62, 2-(3,9-Diazabicyclo[3.3.1]nonan-3-yl)-5-methoxy-7-(thiazol-2-yl)benzo[d]oxazole]	< 100 nM
OCC(F)(F)Oc1ccc(-c2cscn2)c2oc(N3CC4CC(C3)N4)nc12 [Example 311, 2-((2-(3,6-Diazabicyclo[3.1.1]heptan-3-yl)-7-(thiazol-4-yl)benzo[d]oxazol-4-yl)oxy)-2,2-difluoroethan-1-ol]	< 100 nM
CCOC(=O)c1cc(-c2nccs2)c2oc(N3CC4CCC(C3)N4)nc2c1C(F)(F)F [Example 163, Ethyl 2-(3,8-diazabicyclo[3.2.1]octan-3-yl)-7-(thiazol-2-yl)-4-(trifluoromethyl)benzo[d]oxazole-5-carboxylate]	< 100 nM
OC1(COC(c2ccc(-c3cscn3)c3oc(N4CC5CC(C4)N5)nc23)C(F)(F)F)CC1 (centres unmarked) [Example 286, 1-((1-(2-(3,6-Diazabicyclo[3.1.1]heptan-3-yl)-7-(thiazol-4-yl)benzo[d]oxazol-4-yl)-2,2,2-trifluoroethoxy)methyl)cyclopropan-1-ol]	< 100 nM
OC(c1cc(-c2cscn2)c2oc(N3CC4CCC(C3)N4)nc2c1OC(F)(F)F)C(F)F (centres unmarked) [Example 303, 1-(2-(3,8-Diazabicyclo[3.2.1]octan-3-yl)-7-(thiazol-4-yl)-4-(trifluoromethoxy)benzo[d]oxazol-5-yl)-2,2-difluoroethan-1-ol]	< 100 nM
COC(C)c1ccc(-c2nccs2)c2oc(N3CC4CCC(C3)N4)nc12 (centres unmarked) [Example 242, 2-(3,8-Diazabicyclo[3.2.1]octan-3-yl)-4-(1-methoxyethyl)-7-(thiazol-2-yl)benzo[d]oxazole]	< 100 nM
NS(=O)(=O)c1cc(-c2nccs2)c2oc(N3CC4CCC(C3)N4)nc2c1 [Example 57, 2-(3,8-Diazabicyclo[3.2.1]octan-3-yl)-7-(thiazol-2-yl) benzo[d]oxazole-5-sulfonamide]	< 100 nM
COC(C)(C)c1cc(-c2nccs2)c2oc(N3CC4CC(C3)N4)nc2c1OC(F)(F)F [Example 199, 2-(3,6-Diazabicyclo[3.1.1]heptan-3-yl)-5-(2-methoxypropan-2-yl)-7-(thiazol-2-yl)-4-(trifluoromethoxy)benzo[d]oxazole]	< 100 nM
OC(c1cc(-c2nccs2)c2oc(N3CC4CC(C3)N4)nc2c1OC(F)(F)F)C(F)F (centres unmarked) [Example 292, 1-(2-(3,6-Diazabicyclo[3.1.1]heptan-3-yl)-7-(thiazol-2-yl)-4-(trifluoromethoxy)benzo[d]oxazol-5-yl)-2,2-difluoroethan-1-ol]	< 100 nM
OC(c1cc(-c2nccs2)c2oc(N3CC4CCC(C3)N4)nc2c1)C(F)(F)F (racemic) [Example 137, 1-(2-(3,8-Diazabicyclo[3.2.1]octan-3-yl)-7-(thiazol-2-yl)benzo[d]oxazol-5-yl)-2,2,2-trifluoroethan-1-ol]	< 100 nM
CCOC(=O)c1ccc(-c2nccs2)c2oc(N3CC4CC(C3)N4)nc12 [Example 113, Ethyl 2-(3,6-diazabicyclo[3.1.1]heptan-3-yl)-7-(thiazol-2-yl)benzo[d]oxazole-4-carboxylate]	< 100 nM
CC(=O)c1cc(-c2nccs2)c2oc(N3CC4CC(C3)N4)nc2c1C(F)(F)F [Example 180, 1-(2-(3,6-Diazabicyclo[3.1.1]heptan-3-yl)-7-(thiazol-2-yl)-4-(trifluoromethyl)benzo[d]oxazol-5-yl)ethan-1-one]	< 100 nM
Oc1cc(-c2nccs2)c2oc(N3CC4CC(C3)N4)nc2c1 [Example 64, 2-(3,6-Diazabicyclo[3.1.1]heptan-3-yl)-7-(thiazol-2-yl)benzo[d]oxazol-5-ol]	< 100 nM
CC(=O)OC(c1cc(-c2nccs2)c2oc(N3CC4CCC(C3)N4)nc2c1)C(F)(F)F (centres unmarked) [Example 141, 1-(2-(3,8-Diazabicyclo[3.2.1]octan-3-yl)-7-(thiazol-2-yl)benzo[d]oxazol-5-yl)-2,2,2-trifluoroethyl acetate]	< 100 nM
COC(C)(C)c1cc(-c2nccs2)c2oc(N3CC4CC(C3)N4)nc2c1 [Example 174, 2-(3,6-Diazabicyclo[3.1.1]heptan-3-yl)-5-(2-methoxypropan-2-yl)-7-(thiazol-2-yl)benzo[d]oxazole]	< 100 nM
CC(=O)c1cc(-c2nccs2)c2oc(N3CC4CC(C3)N4)nc2c1 [Example 109, 1-(2-(3,6-Diazabicyclo[3.1.1]heptan-3-yl)-7-(thiazol-2-yl)benzo[d]oxazol-5-yl)ethan-1-one]	< 100 nM
COC1(COC(c2ccc(-c3nccs3)c3oc(N4CC5CC(C4)N5)nc23)C(F)(F)F)CC1 (centres unmarked) [Example 282, 2-(3,6-Diazabicyclo[3.1.1]heptan-3-yl)-7-(thiazol-2-yl)-4-(2,2,2-trifluoro-1-((1-methoxycyclopropyl)methoxy)ethyl)benzo[d]oxazole]	< 100 nM
COc1cc(-c2nccs2)c2oc(N3CC4CC(C3)N4)nc2c1 [Example 61, 2-(3,6-Diazabicyclo[3.1.1]heptan-3-yl)-5-methoxy-7-(thiazol-2-yl)benzo[d]oxazole]	< 100 nM
COC(c1cc(-c2nccs2)c2oc(N3CC4CCCC(C3)N4)nc2c1)C(F)(F)F (centres unmarked) [Example 145, 2-(3,9-Diazabicyclo[3.3.1]nonan-3-yl)-7-(thiazol-2-yl)-5-(2,2,2-trifluoro-1-methoxyethyl)benzo[d]oxazole]	< 100 nM
CCOC(c1cc(-c2nccs2)c2oc(N3CC4CCC(C3)N4)nc2c1)C(F)(F)F (centres unmarked) [Example 148, 2-(3,8-Diazabicyclo[3.2.1]octan-3-yl)-5-(1-ethoxy-2,2,2-trifluoroethyl)-7-(thiazol-2-yl)benzo[d]oxazole]	< 100 nM
FC(F)Oc1ccc(-c2nccs2)c2oc(N3CC4CC(C3)N4)nc12 [Example 278, 2-(3,6-Diazabicyclo[3.1.1]heptan-3-yl)-4-(difluoromethoxy)-7-(thiazol-2-yl)benzo[d]oxazole]	< 100 nM
CN(CCO)C(=O)c1cc(-c2nccs2)c2oc(N3CC4CCC(C3)N4)nc2c1OC(F)(F)F [Example 193, 2-(3,8-Diazabicyclo[3.2.1]octan-3-yl)-N-(2-hydroxyethyl)-N-methyl-7-(thiazol-2-yl)-4-(trifluoromethoxy)benzo [d]oxazole-5-carboxamide]	< 100 nM
CC(O)(c1cc(-c2nccs2)c2oc(N3CC4CC(C3)N4)nc2c1)C(F)(F)F (centres unmarked) [Example 160, 2-(2-(3,6-Diazabicyclo[3.1.1]heptan-3-yl)-7-(thiazol-2-yl)benzo[d]oxazol-5-yl)-1,1,1-trifluoropropan-2-ol]	< 100 nM

Same assay, conditions: scintillation proximity assay; class symbols; read-out: PDE4 Inhibitory Activity

Compound	IC50
O=C(NCc1ccccc1)c1ccc(-c2nccs2)c2oc(N3CC4CC(C3)N4)nc12 [Example 361, N-benzyl-2-(3,6-diazabicyclo [3.1.1]heptan-3-yl)-7-(thiazol-2-yl) benzo oxazole-4-carboxamide]	< 100 nM
CC(C)(O)C(F)(F)Oc1ccc(-c2nccs2)c2oc(N3CC4CC(C3)N4O)nc12 [Example 371, 3-(4-(1,1-difluoro-2-hydroxy-2-methylpropoxy)-7-(thiazol-2-yl)benzo[d]oxazol-2-yl)-3,6-diazabicyclo [3.1.1]heptan-6-ol]	< 100 nM
CC(O)c1cc(-c2nccs2)c2oc(N3CC4CCC(C3)N4O)nc2c1OC(F)(F)F (centres unmarked) [Example 383, 3-(5-(1-hydroxy-ethyl)-7-(thiazol-2-yl)-4-(trifluoro-methoxy)benzo [d]oxazol-2-yl)-3,8-diazabicyclo[3.2.1] octan-8-ol]	> 1000 nM
O=S(=O)(c1ccc(-c2nccs2)c2oc(N3CC4CC(C3)N4)nc12)N1CCCC1 [Example 390, 2-(3,6-diazabicyclo[3.1.1]heptan-3-yl)-4-(pyrrolidin-1-yl-sulfonyl)-7-(thiazol-2-yl)benzo [d]oxazole]	< 100 nM
c1csc(-c2ccc(C3CC3)c3nc(N4CC5CC(C4)N5)oc23)n1 [Example 344, 2-(3,6-diazabicyclo [3.1.1]heptan-3-yl)-4-cyclopropyl-7-(thiazol-2-yl)benzo[d] oxazole]	< 100 nM
OC(c1ccc(-c2nccs2)c2oc(N3CC4CCC(C3)N4O)nc12)C(F)(F)F (centres unmarked) [Example 378, 3-(7-(thiazol-2-yl)-4-(2,2,2-trifluoro-1-hydroxyethyl)benzo[d]oxazol-2-yl)-3,8-diazabicyclo[3.2.1] octan-8-ol]	100 to 1000 nM
CC(C)(O)c1cc(-c2nccs2)c2oc(N3CC4CCC(C3)N4O)nc2c1C(F)(F)F [Example 381, 3-(5-(2-hydroxy-propan-2-yl)-7-(thiazol-2-yl)-4-(trifluoromethyl)benzo[d]oxazol-2-yl)-3,8-diaza-bicyclo[3.2.1] octan-8-ol]	> 1000 nM
